Data published in patent EP0918774B9, “ANDROGEN RECEPTOR MODULATOR COMPOUNDS AND METHODS” (LIGAND PHARMACEUTICALS INCORPORATED, priority 1996, dated 1997).
Like-named read-outs stand apart in the source and are kept apart here.

Legend:
human AR [1] = biological target: T1, human AR (Homo sapiens, UniProt P10275); experiment: cell-based; type: cell-based; settings: for AR Antagonist CV-1 Cells Efficacy (%): % of maximal inhibition, fixed DHT at EC50; for AR Agonist CV-1 Cells Efficacy (%): percent maximal response relative to reference agonist DHT; for AR agonist/antagonist profile (in words): co-transfection assay, summary of Tables 1-2
T1 construct: expressed in transfected cells; host or cells: CV-1 cells (African green monkey kidney fibroblasts), transient calcium phosphate transfection
T1 sequence (P10275 1-920): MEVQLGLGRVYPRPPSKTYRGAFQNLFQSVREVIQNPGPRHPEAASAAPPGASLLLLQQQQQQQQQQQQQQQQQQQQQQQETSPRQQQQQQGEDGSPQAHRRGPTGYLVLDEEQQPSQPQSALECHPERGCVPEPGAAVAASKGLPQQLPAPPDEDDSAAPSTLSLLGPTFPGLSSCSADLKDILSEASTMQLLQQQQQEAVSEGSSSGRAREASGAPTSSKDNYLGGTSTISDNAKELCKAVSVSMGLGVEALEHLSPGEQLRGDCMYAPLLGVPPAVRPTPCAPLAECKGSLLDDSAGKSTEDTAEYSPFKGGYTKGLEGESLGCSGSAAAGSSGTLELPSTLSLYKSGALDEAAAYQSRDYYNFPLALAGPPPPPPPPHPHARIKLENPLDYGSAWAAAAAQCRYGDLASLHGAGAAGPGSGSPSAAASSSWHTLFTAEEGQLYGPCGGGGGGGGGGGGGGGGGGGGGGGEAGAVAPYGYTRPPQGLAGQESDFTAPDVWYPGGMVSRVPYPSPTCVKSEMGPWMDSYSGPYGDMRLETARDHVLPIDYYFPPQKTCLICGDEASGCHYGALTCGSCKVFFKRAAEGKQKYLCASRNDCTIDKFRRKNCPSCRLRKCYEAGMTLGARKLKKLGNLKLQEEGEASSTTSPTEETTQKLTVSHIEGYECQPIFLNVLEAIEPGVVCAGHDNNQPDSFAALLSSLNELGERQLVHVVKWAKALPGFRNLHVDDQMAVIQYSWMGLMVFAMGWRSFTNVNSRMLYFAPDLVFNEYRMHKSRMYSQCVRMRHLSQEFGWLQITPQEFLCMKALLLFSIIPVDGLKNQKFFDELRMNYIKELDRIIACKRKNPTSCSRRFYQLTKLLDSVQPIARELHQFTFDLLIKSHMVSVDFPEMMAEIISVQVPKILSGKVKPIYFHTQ
Excerpt: The co-transfection assay provides a method for identifying functional agonists and partial agonists which mimic, or antagonists which inhibit, the effect of native hormones, and quantifying their activity for responsive IR proteins. In this regard, the co-transfection assay mimics an in vivo system in the laboratory. Importantly, activity in the co-transfection assay correlates very well with known in vivo activity, such that the co-transfection assay functions as a qualitative and quantitative predictor of a tested compounds in vivo pharmacology. See, e.g., T. Berger et al. 41 J. Steroid Biochem. Molec.
CV-1 cells (African green monkey kidney fibroblasts) were cultured in the presence of Dulbecco's Modified Eagle Medium (DMEM) supplemented with 10% charcoal resinstripped fetal bovine serum then transferred to 96-well microtiter plates one day prior to transfection.
The reporter plasmid, MTV-LUC, contains the cDNA for firefly luciferase (LUC) under control of the mouse mammary tumor virus (MTV) long terminal repeat, a conditional promoter containing an androgen response element. See e.g, Berger et al. supra. In addition, pRS-β-Gal, coding for constitutive expression of E. colβ-galactosidase (β-Gal), was included as an internal control for evaluation of transfection efficiency and compound toxicity.
Three to four replicates were used for each sample.
After 40 hours, the cells were washed with PBS, lysed with a Triton X-100-based buffer and assayed for LUC and β-Gal activities using a luminometer or spectrophotometer, respectively. For each replicate, the normalized response (NR) was calculated as: LUC response/β-Gal rate where β-Gal rate = β-Gal•1x10^-5/β-Gal incubation time.

human AR [2] = biological target: T1, human AR; experiment: cell-based; type: binding

SMILES	IC50 (human AR [1])	AR Antagonist CV-1 Cells Efficacy (%) (human AR [1]; na = not active)	EC50 (human AR [1])	AR Agonist CV-1 Cells Efficacy (%) (human AR [1]; na = not active)	AR agonist/antagonist profile (in words) (human AR [1])	Ki (human AR [2])	EC50 (human AR [1]; read-out: AR Agonist CV-1 Cells Potency, agonist potency EC50, na = not active)
CCC1(CC)CCc2cc3c(C(F)(F)F)c(F)c(=O)[nH]c3cc2N1 [Compound 120, 2,2-Diethyl-7-fluoro-1,2,3,4-tetrahydro-6-trifluoromethyl-8-pyridono[5,6-g]quinoline]	0.025 µM	61%	–	–	–	–	–
CC1(C)CCc2cc3c(C(F)F)c(F)c(=O)[nH]c3cc2N1 [Compound 106, 6-Difluoromethyl-7-fluoro-1,2,3,4-tetrahydro-2,2-dimethyl-8-pyridono[5,6-g]quinoline]	0.06 µM	83%	> 10 µM	na (not active (i.e. efficacy of <20 and potency of >10,000))	–	–	–
CC1CC(C)(C)Nc2cc3[nH]c(=O)c(F)c(C(F)(F)F)c3cc21 (stereo not shown) [Compound 112, 7-Fluoro-1,2,3,4-tetrahydro-2,2,4-trimethyl-6-trifluoromethyl-8-pyridono[5,6-g]quinoline]	–	49%	–	–	highly selective AR antagonists	–	–
Cc1c2c(cc3c(C(F)(F)F)c(F)c(=O)n(C)c13)C(C)CC(C)(C)N2 (stereo not shown) [Compound 116, 7-Fluoro-1,2,3,4-tetrahydro-2,2,4,9,10-pentamethyl-6-trifluoromethyl-8-pyridono[5,6-g]quinoline]	–	20%	> 10 µM	na (not active (i.e. efficacy of <20 and potency of >10,000))	–	–	–
CC1CC(C)(C)n2oc(=O)c3c4[nH]c(=O)cc(C(F)(F)F)c4cc1c32 (stereo not shown) [Compound 113, 1,10-[1,3-dihydro-3-oxo-(2,1-isoxazolyl)]-1,2,3,4-tetrahydro-2,2,4,10-tetramethyl-6-trifluoromethyl-8-pyridono[5,6-g]quinoline]	–	48%	–	26%	mixed AR agonists/antagonists	0.017 µM	–
Cc1c2c(cc3c(C(F)(F)F)c(F)c(=O)[nH]c13)C(C)CC(C)(C)N2C (stereo not shown) [Compound 117, 7-Fluoro-1,2,3,4-tetrahydro-1,2,2,4,10-pentamethyl-6-trifuluoromethyl-8-pyridono[5,6-g]quinoline]	–	81%	–	na (not active (i.e. efficacy of <20 and potency of >10,000))	–	–	> 10 µM
CC1=CC(C)(C)Nc2c1cc1c(C(F)(F)F)c(F)c(=O)[nH]c1c2C [Compound 114, 7-Fluoro-1,2-dihydro-2,2,4,10-tetramethyl-6-trifluoromethyl-8-pyridono[5,6-g]quinoline]	–	90%	> 10 µM	na (not active (i.e. efficacy of <20 and potency of >10,000))	–	–	–
Cc1c2c(cc3c(C(F)(F)F)c(F)c(=O)[nH]c13)C(C)CC(C)(C)N2 (stereo not shown) [Compound 115, 7-Fluoro-1,2,3,4-tetrahydro-2,2,4,10-tetramethyl-6-trifluoromethyl-8-pyridono[5,6-g]quinoline]	0.101 µM	88%	> 10 µM	na (not active (i.e. efficacy of <20 and potency of >10,000))	–	–	–
Cn1c(=O)c(F)c(C(F)(F)F)c2cc3c(cc21)NC(C)(C)CC3 [Compound 107, 7-Fluoro-1,2,3,4-tetrahydro-2,2,9-trimethyl-6-trifluoromethyl-8-pyridono[5,6-g]quinoline]	0.047 µM	79%	> 10 µM	na (not active (i.e. efficacy of <20 and potency of >10,000))	–	–	–
CN1c2cc3c(cc2CCC1(C)C)c(C(F)(F)F)c(F)c(=O)n3C [Compound 109, 7-Fluoro-1,2,3,4-tetrahydro-1,2,2,9-tetramethyl-6-trifluoromethyl-8-pyridono[5,6-g]quinoline]	0.012 µM	86%	> 10 µM	na (not active (i.e. efficacy of <20 and potency of >10,000))	highly selective AR antagonists	–	–
